The values below are quoted from earlier work in patent US20100240695A1, “[…] PHARMACEUTICAL COMPOSITIONS” (priority 2006, published 2010).

Molecules are shown by their SMILES.

The conditions of this data set: average in a patient population.

Consider `Cc1ccc(-c2nc3ccc(C)cn3c2CC(=O)N(C)C)cc1` [zolpidem], for which the “plasma level below which residual sedative effects are essentially extinguished” value is on record as “below 20 ng/ml”.
